Results reported in patent publication EP1149907A1, “EDG8 receptor, its preparation and use” (Aventis Pharma Deutschland GmbH, priority 2000, dated 2001).

Key:
Assay in all cases: FLIPR assay of intracellular Ca2+ mobilization in transiently transfected CHO cells
[1] = tested on: human EDG8, SEQ ID NO. 2; assay type: cell-based; details: for increase in intracellular Ca2+ ([Ca2+]i): CHO cells transiently transfected with EDG8 and G-protein α subunits G16 and Gqi5, lipids applied at 10, 100 and 1000 nM (Fig.3)
Method: Fig.2 depicts measurement of the intracellular Ca2+ concentration, mediated by S1P via the different S1P-receptors EDG1, 3, 5, 6 and the putative S1P-receptor EDG8, cotransfected in CHO cells with empty vector DNA as a control or various G-protein α subunits. Intracellular Ca2+ concentrations were recorded as real time measurements using the Fluorescence plate imaging reader (FLIPR, Molecular Devices). […] As already known for a large number of Gq-coupled receptors, coexpression of Gaq augments the EDG1 and 5-mediated Ca2+-release as compared with the Ca2+ signal induced by stimulation of endogeneous Gaq. […] The reason for this discrepancy could be the cellular background, as Yamazaki Y. et al. (2000) reported that the Ca2+ signal can be completely abolished in the presence of pertussis toxin (PTX), indicating the involvement of Gi-type G-proteins. In this case the Ca2+ signal would be elicited by bg, released from activated Gaibg heterotrimers. The Gαi-induced Ca2+ signals are known to be much smaller in intensity as compared with the Ca2+ signals induced by bona-fide Gq-linked receptors (Kostenis et al., 1997a; Kostenis et al., 1997b). It may be that detection of such Ca2+ concentrations is beyond the sensitivity of the FLIPR system. […] To check, whether the EDG8 receptor also reacts to related lysophospholipid mediators, we examined the abilities of lysophosphatidic acid (LPA), dihydrosphingosin 1-phosphate (DHS1P), sphingosylphosphorylcholine (SPC) and lysophosphatidylcholine (LPC) to increase intracellular Ca2+ in CHO cells transiently transfected with the EDG8 receptor and the G-protein α subunits G16 and Gqi5 (Fig.3).
Fig.2: Mobilization of intracellular Ca^2+ by S1P mediated by the EDG1, 3, 5 and 8 receptor in CHO cells, cotransfected with empty vector DNA as a control or the indicated G-protein α subunits. Agonist-mediated changes of intracellular Ca^2+ were measured with the FLIPR using the Ca^2+-sensitive dye FLUO4. Fluorescence of transfected cells loaded with FLUO4 was recorded before and after addition of S1P, applied in the indicated concentrations. Data are expressed as means of quadruplicate determinations in a single experiment. An additional experiment gave similar results.
Fig.3: Effects of S1P, LPA and related lysophospholipid mediators on EDG8-mediated increase in intracellular Ca^2+ measured with the FLIPR as described in the legend of […]. The different lipids were applied in concentrations of 10, 100 and 1000 nM, respectively. Data are means of quadruplicate determinations of a representative experiment. Two additional experiments gave similar results.
CHO-K1 cells were grown in basal ISCOVE medium supplemented with 10% fetal bovine serum at 37°C in a humidified 5% CO2 incubator. For transfections, 2 x 10^5 cells were seeded into 35-mm dishes. About 24 hr later cells were transiently transfected at 50-80% confluency with the indicated receptor and G-protein constructs (1µg of plasmid DNA each) using the Lipofectamine transfection reagent and the supplied protocol (GIBCO). 18-24 hr after transfection cells were seeded into 96well plates at a density of 50.000 cells per well and cultured for 18-24 additional hr until used in the functional FLIPR assays. The cDNA for Gα16 was cloned from TF1 cells by RT-PCR and ligated into the pCDNA1.1 mammalian expression vector (Invitrogen). Murine wild type Gαq was cloned from cells by RT-PCR and inserted into the BamHI-NsiI-sites of pCDNA1.1. To create the C-terminally modified Gαqi5 subunit, in which the last five aa of wt Gαq were replaced with the correspoding Gαi sequence, a 175-bp Bg/II-NsiI fragment was replaced, in a two piece ligation, with a synthetic DNA fragment, containing the desired codon changes. The correctness of all PCR-derived sequences was verified by sequencing in both directions.
Twenty-four hours after transfection, cells were splitted into 96-well, black-wall microplates (Corning) at a density of 50,000 cells per well. […]

[2] = tested on: EDG1; assay type: cell-based, human; details: CHO cells transfected with EDG1, no cotransfected G-protein α subunit (Fig.2)
Method: (§1) Fig.2 depicts measurement of the intracellular Ca2+ concentration, mediated by S1P via the different S1P-receptors EDG1, 3, 5, 6 and the putative S1P-receptor EDG8, cotransfected in CHO cells with empty vector DNA as a control or various G-protein α subunits. Intracellular Ca2+ concentrations were recorded as real time measurements using the Fluorescence plate imaging reader (FLIPR, Molecular Devices). […] As already known for a large number of Gq-coupled receptors, coexpression of Gaq augments the EDG1 and 5-mediated Ca2+-release as compared with the Ca2+ signal induced by stimulation of endogeneous Gaq. […] The reason for this discrepancy could be the cellular background, as Yamazaki Y. et al. (2000) reported that the Ca2+ signal can be completely abolished in the presence of pertussis toxin (PTX), indicating the involvement of Gi-type G-proteins. In this case the Ca2+ signal would be elicited by bg, released from activated Gaibg heterotrimers. The Gαi-induced Ca2+ signals are known to be much smaller in intensity as compared with the Ca2+ signals induced by bona-fide Gq-linked receptors (Kostenis et al., 1997a; Kostenis et al., 1997b). It may be that detection of such Ca2+ concentrations is beyond the sensitivity of the FLIPR system. […]
(§2) Fig.2: Mobilization of intracellular Ca^2+ by S1P mediated by the EDG1, 3, 5 and 8 receptor in CHO cells, cotransfected with empty vector DNA as a control or the indicated G-protein α subunits. Agonist-mediated changes of intracellular Ca^2+ were measured with the FLIPR using the Ca^2+-sensitive dye FLUO4. Fluorescence of transfected cells loaded with FLUO4 was recorded before and after addition of S1P, applied in the indicated concentrations. Data are expressed as means of quadruplicate determinations in a single experiment. […]

[3] = tested on: EDG3; assay type: cell-based, human; details: CHO cells transfected with EDG3, no cotransfected G-protein α subunit (Fig.2)
Method: as §1, §2

[4] = tested on: EDG5; assay type: cell-based, human; details: CHO cells transfected with EDG5, no cotransfected G-protein α subunit (Fig.2)
Method: as §1, §2

[5] = tested on: EDG6; assay type: cell-based, human; details: CHO cells transfected with EDG6, no cotransfected G-protein α subunit
Method: as §1

CCCCCCCCCCCCC/C=C/[C@@H](O)[C@@H](N)COP(=O)([O-])OCC[N+](C)(C)C [SPC, sphingosylphosphorylcholine]
increase in intracellular Ca2+ ([Ca2+]i) [1]: failed to generate any significant response in concentrations up to 1 µM

CCCCCCCCCCCCCCC[C@@H](O)[C@@H](N)COP(=O)(O)O [DHS1P, dihydrosphingosin 1-phosphate]
increase in intracellular Ca2+ ([Ca2+]i) [1]: evoked [Ca2+]i increases in concentrations of 100 and 1000 nM

lysophosphatidylcholine [LPC]
increase in intracellular Ca2+ ([Ca2+]i) [1]: failed to generate any significant response in concentrations up to 1 µM

CCCCCCCC/C=C\CCCCCCCC(=O)OCC(O)COP(=O)(O)O (centres unmarked) [LPA, lysophosphatidic acid]
increase in intracellular Ca2+ ([Ca2+]i) [1]: evoked [Ca2+]i increases in concentrations of 100 and 1000 nM

CCCCCCCCCCCCC/C=C/[C@@H](O)[C@@H](N)COP(=O)(O)O [S1P, sphingosin 1-phosphate]
mobilization of intracellular Ca2+ ([1]; CHO cells cotransfected with EDG8 and Gα16 or Gαqi5 (Fig.2)): gained the ability to mobilize Ca2+ | mobilization of intracellular Ca2+ ([1]; CHO cells transfected with EDG8, no cotransfected G-protein α subunit (Fig.2)): did not release intracellular Ca2+ | increase in intracellular Ca2+ ([Ca2+]i) [1]: most potent activator of EDG8 | mobilization of intracellular Ca2+ [2]: elicited intracellular Ca2+ signals | mobilization of intracellular Ca2+ [3]: elicited intracellular Ca2+ signals | mobilization of intracellular Ca2+ [4]: elicited intracellular Ca2+ signals | mobilization of intracellular Ca2+ [5]: failed to detect a significant Ca2+ increase above basal levels
